{"source": "patent US8101594B2", "about": "“Method for improving pancreatic functions” (Morinaga Milk Industry Co., Ltd., priority 2005, dated 2012)", "key": {"db/db mice [1]": {"system": "db/db mice", "assay": "Serum insulin level (insulin production ability protecting action) in db/db mice after 42 days of oral administration", "format": "in vivo", "settings": "for Serum insulin levels on 43rd day of administration: male db/db mice, ELISA, negative sample 1.99 ± 0.66; for Pancreatic function (insulin production ability) protecting effect: 0.1 μg/animal; for Pancreatic function (insulin production ability) protecting effect / Serum insulin level as % of that observed in the negative test: 43rd day of continuous administration, db/db mice; for Serum insulin level as % of that observed in the negative test: 1 μg/animal", "method": "In this test, the endocrine gland cell functions (insulin production ability) protecting action of compounds having a lophenol skeleton was evaluated by using db/db mice known as a model animal of pancreatic hypofunction or pancreatic tissue dysfunction.\n4-methyl-cholest-7-en-3-ol produced in Preparation Example mentioned above was used as test sample 1, 4-methyl-ergost-7-en-3-ol was used as test sample 2, and 4-methyl-stigmast-7-en-3-ol was used as test samples 3.\nIn this test, 6-week old male db/db mice (purchased from Clea Japan, Inc.) were used. These mice were divided into groups, each consisting of 7 animals. Each test sample was dissolved in DMSO, and the concentration was adjusted to 0.1 or 1 μg/mL with physiological saline. The final DMSO concentration was adjusted to 0.2%. The pancreas dysfunction model mice were orally administered with 1 mL of the test sample once a day everyday for 42 days with a sonde. The serum insulin level was measured on the 43rd day of the continuous administration by using Lbis insulin mouse ELISA kit (Shibayagi Co., Ltd)."}, "db/db mice [2]": {"system": "db/db mice", "assay": "Pancreatic tissue protecting action: number and maximum area of Langerhans islets in pancreatic sections of db/db mice", "format": "in vivo", "settings": "for Maximum area of Langerhans islets on administration × 10^3 / The numbers of Langerhans islets in sections on 43rd day of administration: 1 μg/animal orally once a day for 42 days; for Maximum area of Langerhans islets on administration × 10^3: negative sample 44.5 ± 17.7; for The numbers of Langerhans islets in sections on 43rd day of administration: pancreatic sections of 3 positions, HE staining, negative sample 40.3 ± 9.7; for Action of protecting pancreatic tissues, especially endocrine cells: 42 days oral", "excerpt": "In this test, the pancreatic tissue protecting action of compounds having a lophenol skeleton was examined by using db/db mice known as a model animal of pancreatic hypofunction or pancreatic tissue dysfunction.\n4-methyl-cholest-7-en-3-ol produced in Preparation Example mentioned above was used as test sample 1, 4-methyl-ergost-7-en-3-ol was used as test sample 2, 4-methyl-stigmast-7-en-3-ol was used as test samples 3. Further, β-sitosterol (Tama Biochemical Co., Ltd.) was used as a control sample.\nIn this test, 6-week old male db/db mice (purchased from Clea Japan, Inc.) were used. These mice were divided into groups, each consisting of 7 animals. Each test sample was dissolved in DMSO, and the concentration was adjusted to 1 μg/mL with physiological saline. The final DMSO concentration was adjusted to 0.2%. The model mice were orally administered with 1 mL of the test sample once a day everyday for 42 days with a sonde. On the 43rd day of the continuous administration, the pancreas was extracted, divided into three portions of upstream, midstream and downstream from the duodenum side, and fixed with a formalin solution, and then paraffin blocks were prepared in a conventional manner. Section slides were prepared from the paraffin blocks, and subjected to hematoxylin-eosin staining. The numbers of Langerhans islets existing on the sections of the 3 position of the pancreas, and area of Langerhans islet having the maximum area on each section were measured by using an ocular micrometer on a microscope (“ECLIPSE E600”, NIKON CORP.)."}, "[3]": {"settings": "0.1 μg/animal orally once a day for 42 days"}, "[4]": {"settings": "1 μg/animal orally once a day for 42 days"}}}
{"smiles": "CC(C)C(C)CCC(C)C1CCC2C3=CCC4C(C)C(O)CCC4(C)C3CCC21C", "note": "(stereo not shown) [Test sample 2, 4-methyl-ergost-7-en-3-ol]", "values": [{"measurement": "Serum insulin levels on 43rd day of administration", "setting": "db/db mice [1]; [3]", "result": "2.32 ± 1.52", "unit": "ng/mL"}, {"measurement": "Pancreatic function (insulin production ability) protecting effect", "setting": "db/db mice [1]", "result": "any significant pancreatic function protecting effect was not observed"}, {"measurement": "Serum insulin levels on 43rd day of administration", "setting": "db/db mice [1]; [4]", "result": "4.17 ± 2.23", "unit": "ng/mL"}, {"measurement": "Serum insulin level as % of that observed in the negative test", "setting": "db/db mice [1]", "result": 210, "unit": "%"}, {"measurement": "Maximum area of Langerhans islets on administration × 10^3", "setting": "db/db mice [2]; 43rd day", "result": "178.7 ± 143.4 × 10^3 μm^2"}, {"measurement": "The numbers of Langerhans islets in sections on 43rd day of administration", "setting": "db/db mice [2]", "result": "64.1 ± 9.1", "unit": "piece"}, {"measurement": "Maximum area of Langerhans islets, times as large as that observed in the negative test", "setting": "db/db mice [2]; 1 μg/animal, 43rd day", "result": 4, "unit": "times"}, {"measurement": "Number of Langerhans islets as % of the number in the negative sample-administered mice", "setting": "db/db mice [2]; 1 μg/animal, 43rd day", "result": 159, "unit": "%"}, {"measurement": "Action of protecting pancreatic tissues, especially endocrine cells", "setting": "db/db mice [2]; 1 μg/animal", "result": "had an action of protecting pancreatic tissues"}]}
{"smiles": "CC(C)CCCC(C)C1CCC2C3=CCC4C(C)C(O)CCC4(C)C3CCC21C", "note": "(stereo not shown) [Test sample 1, 4-methyl-cholest-7-en-3-ol]", "values": [{"measurement": "Serum insulin levels on 43rd day of administration", "setting": "db/db mice [1]; [3]", "result": "2.33 ± 1.23", "unit": "ng/mL"}, {"measurement": "Pancreatic function (insulin production ability) protecting effect", "setting": "db/db mice [1]", "result": "any significant pancreatic function protecting effect was not observed"}, {"measurement": "Serum insulin levels on 43rd day of administration", "setting": "db/db mice [1]; [4]", "result": "3.67 ± 0.80", "unit": "ng/mL"}, {"measurement": "Serum insulin level as % of that observed in the negative test", "setting": "db/db mice [1]", "result": 184, "unit": "%"}, {"measurement": "Maximum area of Langerhans islets on administration × 10^3", "setting": "db/db mice [2]; 43rd day", "result": "160.0 ± 116.0 × 10^3 μm^2"}, {"measurement": "The numbers of Langerhans islets in sections on 43rd day of administration", "setting": "db/db mice [2]", "result": "75.7 ± 24.7", "unit": "piece"}, {"measurement": "Maximum area of Langerhans islets, times as large as that observed in the negative test", "setting": "db/db mice [2]; 1 μg/animal, 43rd day", "result": 3.6, "unit": "times"}, {"measurement": "Number of Langerhans islets as % of the number in the negative sample-administered mice", "setting": "db/db mice [2]; 1 μg/animal, 43rd day", "result": 188, "unit": "%"}, {"measurement": "Action of protecting pancreatic tissues, especially endocrine cells", "setting": "db/db mice [2]; 1 μg/animal", "result": "had an action of protecting pancreatic tissues"}]}
{"smiles": "CCC(CCC(C)C1CCC2C3=CCC4C(C)C(O)CCC4(C)C3CCC21C)C(C)C", "note": "(stereo not shown) [Test sample 3, 4-methyl-stigmast-7-en-3-ol]", "values": [{"measurement": "Serum insulin levels on 43rd day of administration", "setting": "db/db mice [1]; [3]", "result": "2.23 ± 0.68", "unit": "ng/mL"}, {"measurement": "Pancreatic function (insulin production ability) protecting effect", "setting": "db/db mice [1]", "result": "any significant pancreatic function protecting effect was not observed"}, {"measurement": "Serum insulin levels on 43rd day of administration", "setting": "db/db mice [1]; [4]", "result": "4.20 ± 1.86", "unit": "ng/mL"}, {"measurement": "Serum insulin level as % of that observed in the negative test", "setting": "db/db mice [1]", "result": 211, "unit": "%"}, {"measurement": "Maximum area of Langerhans islets on administration × 10^3", "setting": "db/db mice [2]; 43rd day", "result": "122.6 ± 51.4 × 10^3 μm^2"}, {"measurement": "The numbers of Langerhans islets in sections on 43rd day of administration", "setting": "db/db mice [2]", "result": "60.4 ± 11.6", "unit": "piece"}, {"measurement": "Maximum area of Langerhans islets, times as large as that observed in the negative test", "setting": "db/db mice [2]; 1 μg/animal, 43rd day", "result": 2.8, "unit": "times"}, {"measurement": "Number of Langerhans islets as % of the number in the negative sample-administered mice", "setting": "db/db mice [2]; 1 μg/animal, 43rd day", "result": 150, "unit": "%"}, {"measurement": "Action of protecting pancreatic tissues, especially endocrine cells", "setting": "db/db mice [2]; 1 μg/animal", "result": "had an action of protecting pancreatic tissues"}]}
{"smiles": "CC[C@H](CC[C@@H](C)[C@H]1CC[C@H]2[C@@H]3CC=C4C[C@@H](O)CC[C@]4(C)[C@H]3CC[C@]12C)C(C)C", "note": "[Control sample, β-sitosterol, reference compound]", "values": [{"measurement": "Maximum area of Langerhans islets on administration × 10^3", "setting": "db/db mice [2]; 43rd day", "result": "69.1 ± 40.6 × 10^3 μm^2"}, {"measurement": "The numbers of Langerhans islets in sections on 43rd day of administration", "setting": "db/db mice [2]", "result": "42.3 ± 20.1", "unit": "piece"}, {"measurement": "Pancreatic function protecting effect", "setting": "db/db mice [2]; 1 μg/animal, 43rd day", "result": "any pancreatic function protecting effect was not observed"}, {"measurement": "Change of numbers and maximum areas of Langerhans islets", "setting": "db/db mice [2]; 1 μg/animal, 43rd day, versus negative sample", "result": "don't show any significant change"}]}
